Laboratory results: ChEMBL document CHEMBL1201862, “PubChem BioAssay data set” (2004)
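Cultured in 96-well plates, cells were exposed to test compound for 48 hours across five concentrations. GI50: concentration for 50% inhibition of growth.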 Calls of active or inactive are those of the source. Rule as the data show it: active = GI50 up to about 1.1 µM and inactive = higher.

What was measured:
Assay in all cases: DTP human tumour cell line panel, 48 h
786-0 = system: 786-0
A498 = system: A498
A549 = system: A549
ACHN = system: ACHN
BT-549 = system: BT-549
CAKI-1 = system: CAKI-1
CCRF-CEM = system: CCRF-CEM
COLO 205 = system: COLO 205
DU-145 = system: DU-145
EKVX = system: EKVX
HCC 2998 = system: HCC 2998
HCT-116 = system: HCT-116
HCT-15 = system: HCT-15
HOP-62 = system: HOP-62
HT-29 = system: HT-29
Hs-578T = system: Hs-578T
IGROV-1 = system: IGROV-1
KM12 = system: KM12
M14 = system: M14
MCF7 = system: MCF7
MDA-MB-231 = system: MDA-MB-231
MDA-MB-435 = system: MDA-MB-435
MDA-N = system: MDA-N
MOLT-4 = system: MOLT-4
Malme-3M = system: Malme-3M
NCI-H226 = system: NCI-H226
NCI-H23 = system: NCI-H23
NCI-H460 = system: NCI-H460
NCI/ADR-RES = system: NCI/ADR-RES
OVCAR-3 = system: OVCAR-3
OVCAR-4 = system: OVCAR-4
OVCAR-5 = system: OVCAR-5
OVCAR-8 = system: OVCAR-8
PC-3 = system: PC-3
RPMI-8226 = system: RPMI-8226
RXF 393 = system: RXF 393
SF-268 = system: SF-268
SF-295 = system: SF-295
SK-MEL-2 = system: SK-MEL-2
SK-MEL-5 = system: SK-MEL-5
SK-OV-3 = system: SK-OV-3
SN12C = system: SN12C
SNB-19 = system: SNB-19
SNB-75 = system: SNB-75
SR = system: SR
SW-620 = system: SW-620
T47D = system: T47D
U-251 = system: U-251
UACC-257 = system: UACC-257
UACC-62 = system: UACC-62
UO-31 = system: UO-31
HL-60 = system: HL-60
HOP-92 = system: HOP-92
K562 = system: K562
LOX IMVI = system: LOX IMVI
NCI-H522 = system: NCI-H522
SF-539 = system: SF-539
SK-MEL-28 = system: SK-MEL-28
TK-10 = system: TK-10

Question: For COc1cccc(-c2nc(O)c3ccccc3n2)c1OC, which GI50 (786-0) is on record?
Answer: > 100 µM (inactive)

Question: And the GI50 (A498)?
Answer: > 100 µM (inactive)

Question: And the GI50 (A549)?
Answer: > 100 µM (inactive)

Question: And the GI50 (ACHN)?
Answer: > 100 µM (inactive)

Question: What about the GI50 (BT-549) of the same compound?
Answer: > 100 µM (inactive)

Question: And the GI50 (CAKI-1)?
Answer: > 100 µM (inactive)

Question: And the GI50 (CCRF-CEM)?
Answer: > 100 µM (inactive)

Question: What about the GI50 (COLO 205) of the same compound?
Answer: > 100 µM (inactive)

Question: What about the GI50 (DU-145) of the same compound?
Answer: > 100 µM (inactive)

Question: And the GI50 (EKVX)?
Answer: > 100 µM (inactive)

Question: What about the GI50 (HCC 2998) of the same compound?
Answer: > 100 µM (inactive)

Question: What about the GI50 (HCT-116) of the same compound?
Answer: > 100 µM (inactive)

Question: And the GI50 (HCT-15)?
Answer: > 100 µM

Question: What about the GI50 (HOP-62) of the same compound?
Answer: > 100 µM (inactive)

Question: What about the GI50 (HT-29) of the same compound?
Answer: > 100 µM (inactive)

Question: What about the GI50 (Hs-578T) of the same compound?
Answer: > 100 µM (inactive)

Question: And the GI50 (IGROV-1)?
Answer: > 100 µM (inactive)

Question: And the GI50 (KM12)?
Answer: > 100 µM (inactive)

Question: And the GI50 (M14)?
Answer: > 100 µM (inactive)

Question: And the GI50 (MCF7)?
Answer: > 100 µM (inactive)

Question: And the GI50 (MDA-MB-231)?
Answer: 74.3 µM (inactive)

Question: What about the GI50 (MDA-MB-435) of the same compound?
Answer: > 100 µM (inactive)

Question: What about the GI50 (MDA-N) of the same compound?
Answer: > 100 µM (inactive)

Question: What about the GI50 (MOLT-4) of the same compound?
Answer: > 100 µM (inactive)

Question: What about the GI50 (Malme-3M) of the same compound?
Answer: > 100 µM (inactive)

Question: What about the GI50 (NCI-H226) of the same compound?
Answer: > 100 µM (inactive)

Question: And the GI50 (NCI-H23)?
Answer: > 100 µM (inactive)

Question: What about the GI50 (NCI-H460) of the same compound?
Answer: > 100 µM (inactive)

Question: And the GI50 (NCI/ADR-RES)?
Answer: > 100 µM (inactive)

Question: And the GI50 (OVCAR-3)?
Answer: > 100 µM (inactive)

Question: And the GI50 (OVCAR-4)?
Answer: > 100 µM (inactive)

Question: And the GI50 (OVCAR-5)?
Answer: > 100 µM (inactive)

Question: And the GI50 (OVCAR-8)?
Answer: > 100 µM (inactive)

Question: What about the GI50 (PC-3) of the same compound?
Answer: > 100 µM (inactive)

Question: What about the GI50 (RPMI-8226) of the same compound?
Answer: 2.99 µM (inactive)

Question: And the GI50 (RXF 393)?
Answer: > 100 µM (inactive)

Question: And the GI50 (SF-268)?
Answer: > 100 µM (inactive)

Question: What about the GI50 (SF-295) of the same compound?
Answer: > 100 µM (inactive)

Question: What about the GI50 (SK-MEL-2) of the same compound?
Answer: > 100 µM (inactive)

Question: What about the GI50 (SK-MEL-5) of the same compound?
Answer: > 100 µM (inactive)

Question: What about the GI50 (SK-OV-3) of the same compound?
Answer: > 100 µM (inactive)

Question: And the GI50 (SN12C)?
Answer: > 100 µM (inactive)

Question: What about the GI50 (SNB-19) of the same compound?
Answer: > 100 µM (inactive)

Question: What about the GI50 (SNB-75) of the same compound?
Answer: 46.1 µM (inactive)

Question: And the GI50 (SR)?
Answer: > 100 µM (inactive)

Question: And the GI50 (SW-620)?
Answer: > 100 µM (inactive)

Question: And the GI50 (T47D)?
Answer: > 100 µM (inactive)

Question: And the GI50 (U-251)?
Answer: > 100 µM (inactive)

Question: What about the GI50 (UACC-257) of the same compound?
Answer: > 100 µM (inactive)

Question: What about the GI50 (UACC-62) of the same compound?
Answer: 51.8 µM (inactive)

Question: What about the GI50 (UO-31) of the same compound?
Answer: > 100 µM (inactive)

Question: What does the source list for O=C(c1ccccc1)N1CCN(C(=S)N(C(=O)c2ccccc2)c2ccccc2)C1=S?
Answer: GI50 (786-0): 2.09 µM (inactive); GI50 (A498): 4.02 µM (inactive); GI50 (A549): 5.26 µM (inactive); GI50 (ACHN): 2.79 µM (inactive); GI50 (BT-549): 3.85 µM (inactive); GI50 (CAKI-1): 2.47 µM (inactive); GI50 (CCRF-CEM): 2.56 µM (inactive); GI50 (COLO 205): 3.28 µM (inactive); GI50 (DU-145): 3.01 µM (inactive); GI50 (EKVX): 5.92 µM (inactive); GI50 (HCC 2998): 6.5 µM (inactive); GI50 (HCT-116): 3.4 µM (inactive); GI50 (HCT-15): 2.18 µM; GI50 (HL-60): 2.25 µM (inactive); GI50 (HOP-62): 10.3 µM (inactive); GI50 (HOP-92): 6.37 µM (inactive); GI50 (HT-29): 5.42 µM (inactive); GI50 (Hs-578T): 3.1 µM (inactive); GI50 (IGROV-1): 3.52 µM (inactive); GI50 (K562): 2.41 µM (inactive); GI50 (KM12): 5.71 µM (inactive); GI50 (LOX IMVI): 1.9 µM (inactive); GI50 (M14): 3.17 µM (inactive); GI50 (MCF7): 3.13 µM (inactive); GI50 (MDA-MB-231): 10.3 µM (inactive); GI50 (MDA-MB-435): 3.84 µM (inactive); GI50 (MDA-N): 4.18 µM (inactive); GI50 (MOLT-4): 1.89 µM (inactive); GI50 (Malme-3M): 5.13 µM (inactive); GI50 (NCI-H226): 10.7 µM (inactive); GI50 (NCI-H23): 3.05 µM (inactive); GI50 (NCI-H460): 17.5 µM (inactive); GI50 (NCI-H522): 1.87 µM (inactive); GI50 (NCI/ADR-RES): 5.16 µM (inactive); GI50 (OVCAR-3): 4.21 µM (inactive); GI50 (OVCAR-4): 4.6 µM (inactive); GI50 (OVCAR-5): 15.9 µM (inactive); GI50 (OVCAR-8): 3.13 µM (inactive); GI50 (PC-3): 6.59 µM (inactive); GI50 (RPMI-8226): 0.914 µM (active); GI50 (SF-268): 3.45 µM (inactive); GI50 (SF-295): 12.6 µM (inactive); GI50 (SF-539): 2.62 µM (inactive); GI50 (SK-MEL-28): 3.27 µM (inactive); GI50 (SK-MEL-2): 7.41 µM (inactive); GI50 (SK-MEL-5): 13.5 µM (inactive); GI50 (SK-OV-3): 15.5 µM (inactive); GI50 (SN12C): 3.18 µM (inactive); GI50 (SNB-19): 13.3 µM (inactive); GI50 (SNB-75): 2.16 µM (inactive); GI50 (SR): 2.07 µM (inactive); GI50 (SW-620): 3.31 µM (inactive); GI50 (T47D): 4.68 µM (inactive); GI50 (TK-10): 5.83 µM (inactive); GI50 (U-251): 6.79 µM (inactive); GI50 (UACC-257): 8.49 µM (inactive); GI50 (UACC-62): 3.76 µM (inactive); GI50 (UO-31): 2.56 µM (inactive)

Question: What does the source list for CN(C)C1=Nc2ccccc2C(=S)N2CSCC12 (centres undefined)?
Answer: GI50 (786-0): 25.9 µM (inactive); GI50 (A498): > 100 µM (inactive); GI50 (A549): > 100 µM (inactive); GI50 (ACHN): > 100 µM (inactive); GI50 (BT-549): 78.5 µM (inactive); GI50 (CAKI-1): 20.9 µM (inactive); GI50 (CCRF-CEM): 16.4 µM (inactive); GI50 (COLO 205): 22.3 µM (inactive); GI50 (DU-145): > 100 µM (inactive); GI50 (EKVX): 41.1 µM (inactive); GI50 (HCC 2998): > 100 µM (inactive); GI50 (HCT-116): > 100 µM (inactive); GI50 (HCT-15): 34 µM; GI50 (HOP-62): > 100 µM (inactive); GI50 (HT-29): 75.9 µM (inactive); GI50 (Hs-578T): 77.3 µM (inactive); GI50 (IGROV-1): 19.1 µM (inactive); GI50 (K562): 12.8 µM (inactive); GI50 (KM12): > 100 µM (inactive); GI50 (LOX IMVI): 43.3 µM (inactive); GI50 (M14): 66.2 µM (inactive); GI50 (MCF7): 47.3 µM (inactive); GI50 (MDA-MB-231): 44.3 µM (inactive); GI50 (MDA-MB-435): > 100 µM (inactive); GI50 (MDA-N): 39.2 µM (inactive); GI50 (MOLT-4): 22.4 µM (inactive); GI50 (Malme-3M): 32.7 µM (inactive); GI50 (NCI-H226): > 100 µM (inactive); GI50 (NCI-H460): 37.8 µM (inactive); GI50 (NCI-H522): 14.6 µM (inactive); GI50 (NCI/ADR-RES): 73.8 µM (inactive); GI50 (OVCAR-3): 32.7 µM (inactive); GI50 (OVCAR-4): > 100 µM (inactive); GI50 (OVCAR-5): > 100 µM (inactive); GI50 (OVCAR-8): > 100 µM (inactive); GI50 (PC-3): > 100 µM (inactive); GI50 (RPMI-8226): 51.4 µM (inactive); GI50 (RXF 393): 44.7 µM (inactive); GI50 (SF-268): > 100 µM (inactive); GI50 (SF-295): > 100 µM (inactive); GI50 (SK-MEL-28): 81.1 µM (inactive); GI50 (SK-MEL-2): > 100 µM (inactive); GI50 (SK-MEL-5): > 100 µM (inactive); GI50 (SK-OV-3): > 100 µM (inactive); GI50 (SN12C): 84.5 µM (inactive); GI50 (SNB-19): > 100 µM (inactive); GI50 (SNB-75): 57.3 µM (inactive); GI50 (SR): 17.9 µM (inactive); GI50 (SW-620): 34.8 µM (inactive); GI50 (T47D): 89.5 µM (inactive); GI50 (TK-10): > 100 µM (inactive); GI50 (U-251): 35.6 µM (inactive); GI50 (UACC-257): > 100 µM (inactive); GI50 (UACC-62): 75.5 µM (inactive); GI50 (UO-31): > 100 µM (inactive)
